According to PubChem BioAssay (NCI):
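Values below derive from 48-hour exposures of cells grown in 96-well plates, with endpoints linearly interpolated between the two concentrations bracketing the appropriate inhibition level. TGI: total growth inhibition.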

Legend:
Assay in all cases: NCI tumour cell line growth inhibition, 48 h
M14 melanoma = system: M14 melanoma
HT29 colon = system: HT29 colon
NCI-H23 lung = system: NCI-H23 lung
RXF 393 renal = system: RXF 393 renal
MOLT-4 leukemia = system: MOLT-4 leukemia
UACC-257 melanoma = system: UACC-257 melanoma
CCRF-CEM leukemia = system: CCRF-CEM leukemia
U251 CNS = system: U251 CNS
SK-MEL-2 melanoma = system: SK-MEL-2 melanoma
OVCAR-5 ovarian = system: OVCAR-5 ovarian
IGROV1 ovarian = system: IGROV1 ovarian
BT-549 breast = system: BT-549 breast
SW-620 colon = system: SW-620 colon
SK-MEL-28 melanoma = system: SK-MEL-28 melanoma
TK-10 renal = system: TK-10 renal
SN12C renal = system: SN12C renal
T-47D breast = system: T-47D breast
786-0 renal = system: 786-0 renal
HCT-116 colon = system: HCT-116 colon
RPMI-8226 leukemia = system: RPMI-8226 leukemia
UACC-62 melanoma = system: UACC-62 melanoma
ACHN renal = system: ACHN renal
SNB-75 CNS = system: SNB-75 CNS
HCT-15 colon = system: HCT-15 colon
MDA-N = system: MDA-N
A498 renal = system: A498 renal
A549 NSCLC = system: A549 NSCLC
SK-MEL-5 melanoma = system: SK-MEL-5 melanoma
COLO 205 colon = system: COLO 205 colon
HS 578T breast = system: HS 578T breast
UO-31 renal = system: UO-31 renal
PC-3 prostate = system: PC-3 prostate
HL-60(TB) leukemia = system: HL-60(TB) leukemia
HOP-92 NSCLC = system: HOP-92 NSCLC
MALME-3M melanoma = system: MALME-3M melanoma
KM12 colon = system: KM12 colon
NCI-H226 lung = system: NCI-H226 lung
HOP-62 NSCLC = system: HOP-62 NSCLC
MDA-MB-231 breast = system: MDA-MB-231 breast
SNB-19 CNS = system: SNB-19 CNS
SR leukemia = system: SR leukemia
HCC-2998 colon = system: HCC-2998 colon
OVCAR-8 ovarian = system: OVCAR-8 ovarian
EKVX NSCLC = system: EKVX NSCLC
NCI-H460 lung = system: NCI-H460 lung
K-562 leukemia = system: K-562 leukemia
SF-295 CNS = system: SF-295 CNS
SF-268 CNS = system: SF-268 CNS
DU-145 prostate = system: DU-145 prostate
NCI/ADR-RES ovarian = system: NCI/ADR-RES ovarian
MCF7 breast = system: MCF7 breast
SK-OV-3 ovarian = system: SK-OV-3 ovarian
NCI-H522 lung = system: NCI-H522 lung
LOX IMVI melanoma = system: LOX IMVI melanoma
OVCAR-4 ovarian = system: OVCAR-4 ovarian
SF-539 CNS = system: SF-539 CNS
CAKI-1 renal = system: CAKI-1 renal
MDA-MB-435 = system: MDA-MB-435
OVCAR-3 ovarian = system: OVCAR-3 ovarian

Measured: TGI

O=C(CC(=O)n1nc(-c2ccccc2)c(N=Nc2ccc(Cl)cc2)c1-c1ccccc1)Nc1cccc(Cl)c1
> 100 µM: M14 melanoma | HT29 colon | NCI-H23 lung | RXF 393 renal | MOLT-4 leukemia | UACC-257 melanoma | CCRF-CEM leukemia | U251 CNS | SK-MEL-2 melanoma | OVCAR-5 ovarian | IGROV1 ovarian | BT-549 breast | SW-620 colon | SK-MEL-28 melanoma | TK-10 renal | SN12C renal | T-47D breast | 786-0 renal | HCT-116 colon | RPMI-8226 leukemia | UACC-62 melanoma | ACHN renal | SNB-75 CNS | HCT-15 colon | MDA-N | A498 renal | A549 NSCLC | SK-MEL-5 melanoma | COLO 205 colon | HS 578T breast | UO-31 renal | PC-3 prostate | HL-60(TB) leukemia | HOP-92 NSCLC | MALME-3M melanoma | KM12 colon | NCI-H226 lung | HOP-62 NSCLC | MDA-MB-231 breast | SNB-19 CNS | SR leukemia | HCC-2998 colon | OVCAR-8 ovarian | EKVX NSCLC | NCI-H460 lung | K-562 leukemia

CNC(=O)N1CCN(C(=O)NC)CCN(C(=O)NC)CC1
> 100 µM: M14 melanoma | HT29 colon | NCI-H23 lung | RXF 393 renal | MOLT-4 leukemia | UACC-257 melanoma | CCRF-CEM leukemia | U251 CNS | SK-MEL-2 melanoma | OVCAR-5 ovarian | IGROV1 ovarian | BT-549 breast | SW-620 colon | SK-MEL-28 melanoma | TK-10 renal | SF-295 CNS | SN12C renal | T-47D breast | 786-0 renal | HCT-116 colon | RPMI-8226 leukemia | UACC-62 melanoma | ACHN renal | SF-268 CNS | SNB-75 CNS | HCT-15 colon | MDA-N | A498 renal | A549 NSCLC | SK-MEL-5 melanoma | COLO 205 colon | DU-145 prostate | NCI/ADR-RES ovarian | HS 578T breast | UO-31 renal | MCF7 breast | PC-3 prostate | HL-60(TB) leukemia | HOP-92 NSCLC | MALME-3M melanoma | NCI-H226 lung | SK-OV-3 ovarian | HOP-62 NSCLC | NCI-H522 lung | MDA-MB-231 breast | LOX IMVI melanoma | SNB-19 CNS | SR leukemia | HCC-2998 colon | OVCAR-8 ovarian | EKVX NSCLC | NCI-H460 lung | K-562 leukemia

CSc1nc(Cl)c2c(n1)Sc1nc3cc4c(cc3n1C2O)OCO4 (configuration not stated)
> 60.9 µM: HCC-2998 colon
> 47.9 µM: A549 NSCLC
5.72 µM: NCI/ADR-RES ovarian
7.55 µM: HT29 colon
6.09 µM: NCI-H226 lung
> 39 µM: 786-0 renal
16.7 µM: HOP-62 NSCLC
> 83.2 µM: SF-295 CNS
7.49 µM: SK-MEL-5 melanoma
> 30.4 µM: HS 578T breast
36.1 µM: MDA-N
> 32 µM: NCI-H460 lung
14.2 µM: UACC-62 melanoma
7.3 µM: OVCAR-3 ovarian
> 75.3 µM: SK-OV-3 ovarian
> 43.9 µM: M14 melanoma
40.4 µM: A498 renal
0.686 µM: COLO 205 colon
3.85 µM: OVCAR-8 ovarian
> 83.3 µM: MDA-MB-231 breast
0.327 µM: SF-539 CNS
> 100 µM: NCI-H23 lung | MOLT-4 leukemia | UACC-257 melanoma | CCRF-CEM leukemia | OVCAR-4 ovarian | OVCAR-5 ovarian | SK-MEL-28 melanoma | TK-10 renal | T-47D breast | ACHN renal | SF-268 CNS | SNB-75 CNS | CAKI-1 renal | MDA-MB-435 | HCT-15 colon | DU-145 prostate | MCF7 breast | KM12 colon | SNB-19 CNS | EKVX NSCLC | K-562 leukemia
> 60.3 µM: PC-3 prostate
0.639 µM: NCI-H522 lung
> 57.8 µM: UO-31 renal
32.4 µM: SN12C renal
> 31.3 µM: BT-549 breast
> 20.8 µM: RPMI-8226 leukemia
> 64.4 µM: SK-MEL-2 melanoma
0.746 µM: LOX IMVI melanoma
> 50.1 µM: U251 CNS
> 81.8 µM: SW-620 colon
63.9 µM: MALME-3M melanoma
> 51.9 µM: RXF 393 renal
> 72.2 µM: IGROV1 ovarian
> 47.4 µM: HCT-116 colon

O=C(NCCCNC(=O)c1ccc2cc(O)c(O)cc2c1)c1ccc2cc(O)c(O)cc2c1
42.7 µM: UACC-62 melanoma
56.5 µM: SNB-19 CNS
82.2 µM: DU-145 prostate
35.6 µM: SF-539 CNS
> 100 µM: M14 melanoma | MOLT-4 leukemia | UACC-257 melanoma | U251 CNS | OVCAR-5 ovarian | IGROV1 ovarian | BT-549 breast | SW-620 colon | SK-MEL-28 melanoma | TK-10 renal | HCT-116 colon | RPMI-8226 leukemia | ACHN renal | SF-268 CNS | SNB-75 CNS | CAKI-1 renal | MDA-MB-435 | HCT-15 colon | MDA-N | A498 renal | A549 NSCLC | COLO 205 colon | NCI/ADR-RES ovarian | UO-31 renal | MCF7 breast | PC-3 prostate | MALME-3M melanoma | KM12 colon | HOP-62 NSCLC | NCI-H522 lung | SR leukemia | OVCAR-8 ovarian | EKVX NSCLC | NCI-H460 lung | K-562 leukemia
81.2 µM: HT29 colon
48 µM: HOP-92 NSCLC
67.4 µM: LOX IMVI melanoma
99.7 µM: RXF 393 renal
57.8 µM: NCI-H226 lung
34 µM: SK-MEL-2 melanoma
90.6 µM: T-47D breast
59.7 µM: HL-60(TB) leukemia
66.3 µM: CCRF-CEM leukemia
48.4 µM: SK-MEL-5 melanoma
63.5 µM: NCI-H23 lung
50.9 µM: HCC-2998 colon
45.4 µM: OVCAR-4 ovarian
